From US20120165319A1, “INHIBITORS OF INTERLEUKIN-1 BETA CONVERTING ENZYME” (VERTEX PHARMACEUTICALS INCORPORATED, priority 1995, published 2012)
Where “and” joins values, the source holds several entries; their conditions need not be identical. Equal entries are not always repeated. Entries after “also recorded” stand apart in the source; their conditions may differ. Where two headings read alike, the source gives them in different places.

Assays:
ICE = target: T1, ICE (Homo sapiens, UniProt P29466); experiment: Enzyme assay with UV-visible substrate (visible ICE assay, Succinyl-Tyr-Val-Ala-Asp-pNitroanilide); assay type: biochemical
T1 sequence (P29466 120-297 limits assumed): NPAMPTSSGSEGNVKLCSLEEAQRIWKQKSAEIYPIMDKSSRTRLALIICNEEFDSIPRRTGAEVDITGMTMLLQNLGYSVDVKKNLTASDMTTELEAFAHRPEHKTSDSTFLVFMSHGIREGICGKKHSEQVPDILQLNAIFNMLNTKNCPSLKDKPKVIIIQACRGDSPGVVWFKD
T1 sequence (P29466 317-404 limits assumed): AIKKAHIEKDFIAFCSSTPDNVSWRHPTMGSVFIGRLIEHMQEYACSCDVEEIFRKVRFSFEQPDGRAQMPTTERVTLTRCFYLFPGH
In short: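 Buffer, ICE and inhibitor in DMSO are combined and held 15 min at room temperature. Succinyl-Tyr-Val-Ala-Asp-pNA is then added and absorbance at 405-603 nm tracked for 20 min at 37° C.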

[1] = test system: IL-1β production, LPS-challenged mice; experiment: In vivo acute assay for efficacy as anti-inflammatory agent: LPS-induced IL-1β production in mice; set-up: species or system mouse; details: for inhibition at 50 mg/kg: po, read-out: percent inhibition of IL-1β production; for inhibition at 50 mg/kg / percent inhibition of IL-1β production: compound PO; for IP % Inhibition / POS Inhibition: % inhibition of IL-β production, 50 mg/kg (Table 3); for inhibition of IL-1β secretion/production after IP administration: LPS-challenged CD1 mice, IP injection one hour after LPS
In short: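 CD1 mice (n=6) were challenged with LPS 20 mg/kg IP and given compound IP in olive oil:DMSO:ethanol (90:5:5) 1 h after LPS, or at the time of challenge for some analogs. Blood was taken 7 h after LPS and serum IL-1β was measured by ELISA. Oral gavage at 50 mg/kg was also tested.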

[2] = In vivo rat clearance assay; details: for clearance: plasma, iv
In short: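 Rats cannulated a day beforehand received 10–20 mg/kg by intravenous jugular dosing in propylene glycol/saline with 100 mM sodium bicarbonate. Carotid blood was sampled from 0 to 90 min, and plasma was extracted with acetonitrile/0.1% TFA for HPLC quantification. Clearance from non-linear regression pharmacokinetic analysis.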

[3] = Pharmacokinetic studies in the mouse (i.v. clearance, plasma levels); assay type: in vivo; details: for clearance: CD-1, plasma; for clearance / concentration at 2 min: iv; for concentration at 2 min: plasma, read-out: mean plasma level at 2 minutes
In short: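 Male CD-1 mice (26-31 g) given 25 mg/kg i.v. via tail vein in 0.02M Tris (2.5 mg/ml), groups of 5 per timepoint from 2 to 120 min. Heparinized plasma deproteinated (perchloric acid or acetonitrile) and analysed by reverse-phase HPLC with UV or MS detection against plasma-spiked calibration (0.5 to 50 μg/ml).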

[4] = Mus musculus, 0 h, LPS challenged mice, 50 mg/kg, administered 0 h relative to time of LPS challenge
[5] = Mus musculus, 1 h, LPS challenged mice, 50 mg/kg, administered +1 h relative to time of LPS challenge
[6] = Mus musculus, 1 h, LPS challenged mice, 50 mg/kg, administered −1 h relative to time of LPS challenge
[7] = Mus musculus, 2 h, LPS challenged mice, 50 mg/kg, administered −2 h relative to time of LPS challenge
[8] = LPS challenged mice, PO, 50 mg/kg, * = values obtained in subsequent assays (Table 4)
[9] = male CD-1 mice, i.v. tail vein, 25 mg/kg
[10] = mouse, male CD-1 mice, i.v. tail vein, 25 mg/kg

Molecule: O=C1C[C@H](NC(=O)[C@@H]2CCCN3C(=O)CC[C@H](NC(=O)c4ccccc4)C(=O)N23)C(OCc2ccccc2)O1 (single isomer, unassigned) [Compound 2100n]
- Ki (ICE; Table 17): 670 nM
- melting point: 112 to 115 °C
- inhibition at 50 mg/kg [1, 4]: 64%
- inhibition at 50 mg/kg [1, 5]: 73%
- inhibition at 50 mg/kg [1, 6]: 9%
- inhibition at 50 mg/kg [1, 7]: 21%

Molecule: O=C[C@H](CC(=O)O)NC(=O)[C@@H]1CCCN2C(=O)CC[C@H](NC(=O)CCc3ccccc3)C(=O)N12 [Compound 47a, [3S(1S,9S)]3-(6,10-Dioxo-octahydro-9-(3-phenylpropionylamino)-6H-pyridazino[1,2-a][1,2]diazepine-1-carboxamido)-4-oxobutanoic acid]
- clearance ([2]; 10-20 mg/kg): 32 mL/min/kg
- clearance ([3]; mouse, 25 mg/kg): 79 mL/min/kg

Molecule: O=C(O)C[C@H](NC(=O)[C@@H]1CCCN2C(=O)CC[C@H](NC(=O)CCc3ccccc3)C(=O)N12)C(=O)CSCc1ccccc1Cl [Compound 125b, [3S(1S,9S)]-3-(6,10-dioxo-1,2,3,4,7,8,9,10-octahydro)-9-(3-phenylpropionyl-amino)-6H-pyridazine[1,2-a][1,2]diazepine-1-carboxamido-5-(2-chlorophenyl-methylthio)-4-oxopentanoic acid]
- melting point: 76 to 80 °C

Molecule: O=C[C@H](CC(=O)O)NC(=O)[C@@H]1CCCN2C(=O)CC[C@H](NC(=O)c3ccccc3)C(=O)N12 [Compound 214e, [3S(1S,9S)]3-(9-Benzoylamino-6,10-dioxo-1,2,3,4,7,8,9,10-octahydro-6H-pyridazino[1,2-a][1,2]-diazepine-1-carboxamido)-4-oxobutanoic acid]
- Ki (ICE; Table 5): 7.5 nM
- IP % Inhibition ([1]; LPS-challenged mice): 78%
- POS Inhibition ([1]; LPS-challenged mice, PO): 75%
- Inhibition of IL-1β Production, compound administered 0 hr relative to LPS challenge [1, 8]: 48* % and 80* %
- Inhibition of IL-1β Production, compound administered −1 hr relative to LPS challenge [1, 8]: 44* %
- Inhibition of IL-1β Production, compound administered −2 hr relative to LPS challenge [1, 8]: 43* % and 39* %
- percent inhibition of IL-1β production ([1]; LPS challenged mice, 50 mg/kg, administered 0 h relative to time of LPS challenge): 70% and 48%
- percent inhibition of IL-1β production ([1]; LPS challenged mice, 50 mg/kg, administered −2 h relative to time of LPS challenge): 43%
- inhibition of IL-1β secretion/production after IP administration ([1]; result in words): dose dependent inhibition; also recorded: inhibit IL-1β production
- inhibition of IL-1β secretion/production after oral (PO) administration ([1]; LPS-challenged mice, oral gavage, 50 mg/kg, result in words): inhibited IL-1β secretion; also recorded: inhibit IL-1β production
- inhibition at 50 mg/kg [1, 6]: 44%
- inhibition at 50 mg/kg [1, 7]: 39%
- ED50 ([1]; Mus musculus, CD1 mice, LPS 20 mg/kg IP, compound IP one hour after LPS, blood seven hours after LPS, read-out: ED50, inhibition of IL-1β secretion): ~15 mg/kg
- clearance ([2]; 10-20 mg/kg): 12 mL/min/kg
- clearance ([3]; mouse, 25 mg/kg): 23 mL/min/kg
- mean plasma level at 90 and 120 minutes [3, 9]: < 2 µg/mL
- concentration at 2 min [3, 10]: 70 µg/mL

Molecule: O=C(O)C[C@H](NC(=O)[C@@H]1CCCN2C(=O)CC[C@H](NC(=O)OCc3ccccc3)C(=O)N12)C(=O)COC(=O)c1c(Cl)cccc1Cl [Compound 217d, [3S(1S,9S)]3-(9-Benzyloxycarbonylamino-6,10-dioxo-1,2,3,4,7,8,9,10-octahydro-6H-pyridazino[1,2-a][1,2]-diazepine-1-carboxamido)-5-(2,6-dichlorobenzoyloxy)-4-oxopentanoic acid]
- melting point: 85 to 110 °C

Molecule: O=C(O)C[C@H](NC(=O)[C@@H]1CCCN2C(=O)CC[C@H](NC(=O)c3ccccc3)C(=O)N12)C(=O)COC(=O)c1c(Cl)cccc1Cl [Compound 217e, [3S(1S,9S)]3-(9-Benzoylamino-6,10-dioxo-1,2,3,4,7,8,9,10-octahydro-6H-pyridazino[1,2-a][1,2]-diazepine-1-carboxamido)-5-(2,6-dichlorobenzoyloxy)-4-oxopentanoic acid]
- inhibition of IL-1β secretion/production after IP administration ([1]; result in words): significant inhibition; also recorded: inhibits IL-1β production
- clearance ([3]; mouse, 25 mg/kg): > 50 mL/min/kg
- mean plasma concentration at 60-120 minutes [3, 9]: < 0.2 µg/mL
- concentration at 2 min [3, 10]: ~55 µg/mL

Molecule: N#C[C@H](CC(=O)O)NC(=O)[C@@H]1CCCN2C(=O)CC[C@H](NC(=O)c3ccccc3)C(=O)N12 [Compound 232e, [3S(1S,9S)]9-(Benzoylamino)-3-[6,10-dioxo-1,2,3,4,7,8,9,10-octahydro-6H-pyridazino-[1,2-a][1,2]diazepine-1-carboxamido]-3-cyanopropanoic acid]
- Ki (ICE; Table 5): 1100 nM
- clearance ([2]; 10-20 mg/kg): 26 mL/min/kg
- clearance ([3]; mouse, 25 mg/kg): 22 mL/min/kg

Molecule: O=C[C@H](CC(=O)O)NC(=O)[C@@H]1CCCN2C(=O)CCN(NC(=O)c3ccccc3)C(=O)N12 [Compound 265, [3S(4S)]3-(7-Benzamido-6,10-dioxo-1,2,3,4,7,8,9,10-octahydro-6H-pyridazino[1,2-a][1,2,4]triazepine-4-carboxamido)-4-oxobutanoic acid]
- Ki (ICE; Table 5): 47 nM
- IP % Inhibition ([1]; LPS-challenged mice): 30%
- POS Inhibition ([1]; LPS-challenged mice, PO): 27%
- clearance ([2]; 10-20 mg/kg): 20 mL/min/kg
- clearance ([3]; mouse, 25 mg/kg): 23 mL/min/kg

Molecule: COC(=O)N[C@H]1CCC(=O)N2CCC[C@@H](C(=O)N[C@@H](CC(=O)O)C(=O)COC(=O)c3c(Cl)cccc3Cl)N2C1=O [Compound 284, [3S(1S,9S)]5-(2,6-Dichlorobenzoyloxy)-3-[6,10-dioxo-9-(methoxycarbonyl)amino-1,2,3,4,7,8,9,10-octahydro-6H-pyridazino[1,2-a][1,2]diazepine-1-carboxamido]-4-oxopentanoic acid]
- clearance ([2]; 10-20 mg/kg): 100 mL/min/kg
- clearance ([3]; mouse, 25 mg/kg): 77 mL/min/kg

Molecule: O=C[C@H](CC(=O)O)NC(=O)[C@@H]1CCCN2C(=O)CC[C@H](NC(=O)c3ccsc3)C(=O)N12 [Compound 410]
- Ki (ICE; Table 5): 17 nM
- clearance ([2]; 10-20 mg/kg): 20 mL/min/kg
- clearance ([3]; mouse, 25 mg/kg): 32 mL/min/kg

Molecule: O=C[C@H](CC(=O)O)NC(=O)[C@@H]1CCCN2C(=O)CC[C@H](NC(=O)c3ccc(NC(=O)Cc4ccccc4)cc3)C(=O)N12 [Compound 486, [3S(1S,9S)]3-{6,10-Dioxo-1,2,3,4,7,8,9,10-octahydro-9-[4-(phenylacetamido)benzamido]-6H-pyridazino[1,2-a][1,2]diazepine-1-carboxamido}-4-oxobutanoic acid]
- Ki (ICE; Table 5): 2.3 nM
- melting point: 165 to 169 °C
- inhibition at 50 mg/kg [1, 4]: 15%
- inhibition at 50 mg/kg [1, 7]: 19%
- clearance ([2]; 10-20 mg/kg): 37 mL/min/kg

Molecule: CC(=O)Nc1ccc(C(=O)NN2CCC(=O)N3CCC[C@@H](C(=O)N[C@H](C=O)CC(=O)O)N3C2=O)cc1 [Compound 1018, [3S(4S)]3-{7-[(4-Acetamido)benzamido]-6,10-Dioxo-1,2,3,4,7,8,9,10-octahydro-6H-pyridazino[1,2-a][1,2,4]-triazepine-4-carboxamido}-4-oxobutanoic acid]
- Ki (ICE; Table 17): 170 nM
- melting point: 235 to 240 °C
- clearance ([2]; Table 17): 9.1 mL/min/kg

Molecule: O=C[C@H](CC(=O)O)NC(=O)[C@@H]1CCCN2C(=O)CCN(NC(=O)c3cc4ccccc4[nH]3)C(=O)N12 [Compound 1075, [3S(4S)]3-[6,10-Dioxo-7-(indole-2-carboxamido)-1,2,3,4,7,8,9,10-octahydro-6H-pyridazino[1,2-a][1,2,4]triazepine-4-carboxamido]-4-oxobutanoic acid]
- Ki (ICE; Table 17): 120 nM
- melting point: 210 to 215 °C
- clearance ([2]; Table 17): 14.5 mL/min/kg

Molecule: O=C1C[C@H](NC(=O)[C@@H]2CCCN3C(=O)CC[C@H](NC(=O)c4ccccc4)C(=O)N23)[C@H](OCc2ccccc2)O1 [Compound 2100o, [1S,9S(2R,3S)]9-Benzoylamino-N-(2-benzyloxy-5-oxotetrahydrofuran-3-yl)-6,10-dioxo-1,2,3,4,7,8,9,10-octahydro-6H-pyridazino[1,2-a][1,2]diazepine-1-carboxamide]
- Ki (ICE; Table 17): 670 nM
- melting point: 115 to 117 °C
- inhibition at 50 mg/kg [1, 4]: 68%
- inhibition at 50 mg/kg [1, 5]: 64%
- inhibition at 50 mg/kg [1, 6]: 44%
- inhibition at 50 mg/kg [1, 7]: 31%

Molecule: [3S(1S,9S)]3-[(6,10-Dioxo-9-(methanesulphonylamino)-1,2,3,4,7,8,9,10-octahydro-6H-pyridazino[1,2-a][1,2]diazepine-1-carboxamido]-5-(5-methyl-3-phenylisoxazoyloxy)-4-oxopentanoic acid [505 b]
- Clearance Rat, i.v. ([2]; Table 18): 196 mL/min/kg
- Clearance Mouse, i.v. ([3]; mouse, i.v., Table 18): 161 mL/min/kg
